Results published in patent US12146004B2, “Polymyxin compounds and uses thereof” (priority 2014, dated 2024).
≈ marks a conversion by molar mass, not a printed value. Bridge positions count the residues as written; N and C are the ends. Square brackets hold non-standard residues; d marks the D form. Peptide text beside a SMILES is read from it. * marks the point of attachment. X10 = NC[C@H](OCc1ccc(Cl)cc1)C(=O)*; X29 = Cc1ccc(CO[C@@H](CN)C(=O)*)cc1; X9 = Cc1ccc(CO[C@@H](CCN)C(=O)*)cc1; X27 = NCCC(C(=O)*)c1cccc(Cl)c1; dCha = N[C@H](CC1CCCCC1)C(=O)O; X28 = NCCC(C(=O)*)c1ccccc1Cl; X4 = CC(C)CC1CNCC(C(=O)*)C1; X15 = NCCC(CC1CCCC1)C(=O)*; X24 = NCCC(Cc1ccsc1)C(=O)*; Dab = NCC[C@H](N)C(=O)O; Dap = NC[C@H](N)C(=O)O

Tests used:
Type in all cases: cell-based
Acinetobacter baumannii = test system: Acinetobacter baumannii
Outline: (§1)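 MIC (μg/mL) by susceptibility testing against up to nine strains per species, including strains with elevated Polymyxin MICs and resistant isolates.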

Escherichia coli = test system: Escherichia coli
Outline: as §1

Klebsiella pneumoniae = test system: Klebsiella pneumoniae
Outline: as §1

Pseudomonas aeruginosa = test system: Pseudomonas aeruginosa
Outline: as §1

Row | MIC A. baumanii 053 (Acinetobacter baumannii) [µg/mL] | MIC A. baumanii 056 (Acinetobacter baumannii) [µg/mL] | MIC A. baumanii ATCC BAA-747 (Acinetobacter baumannii) [µg/mL] | MIC A. baumanii NCTC 13424 (Acinetobacter baumannii) [µg/mL] | MIC E. coli 058 (Escherichia coli) [µg/mL] | MIC E. coli 061 (Escherichia coli) [µg/mL] | MIC E. coli ATCC 25922 (Escherichia coli) [µg/mL] | MIC K. pneumoniae 063 (Klebsiella pneumoniae) [µg/mL] | MIC K. pneumoniae 065 (Klebsiella pneumoniae) [µg/mL] | MIC K. pneumoniae ATCC 13882 (Klebsiella pneumoniae) [µg/mL] | MIC P. aeruginosa 068 (Pseudomonas aeruginosa) [µg/mL] | MIC P. aeruginosa 070 (Pseudomonas aeruginosa) [µg/mL] | MIC P. aeruginosa ATCC 27853 (Pseudomonas aeruginosa) [µg/mL] | MIC P. aeruginosa CCUG 59347 (Pseudomonas aeruginosa) [µg/mL] | MIC E. coli NCTC 9001 (Escherichia coli) [µg/mL] | MIC K. pneumoniae ATCC 4352 (Klebsiella pneumoniae) [µg/mL] | SMILES
1 | >64 | 64 (≈ 56.3 µM) | 0.25 (≈ 0.22 µM) | 0.25 (≈ 0.22 µM) | 2 (≈ 1.76 µM) | 16 (≈ 14.1 µM) | 0.125 (≈ 0.11 µM) | 16 (≈ 14.1 µM) | 1 (≈ 0.88 µM) | 0.25 (≈ 0.22 µM) | 1 (≈ 0.88 µM) | 1 (≈ 0.88 µM) | 0.25 (≈ 0.22 µM) | 0.5 (≈ 0.44 µM) |  |  | CC(C)C[C@@H]1NC(=O)[C@@H](CC2CCCCC2)NC(=O)[C@H](CCN)NC(=O)[C@@H](NC(=O)[C@H](CN)NC(=O)[C@@H](NC(=O)C(CCN)Cc2ccsc2)[C@@H](C)O)CCNC(=O)[C@H]([C@@H](C)O)NC(=O)[C@H](CCN)NC(=O)[C@H](CCN)NC1=O (stereo partly drawn) [Example 68, 4-amino-2-(thiophen-3-ylmethyl)butanoyl L-Thr-L-Dap-polymyxin [D-cyclohexylalanine]-6 heptapeptide.] (X24-T[Dap][Dab][Dab][dCha]L[Dab][Dab]T; lactam 3-C)
2 | 64 (≈ 55.2 µM) | 32 (≈ 27.6 µM) | 0.125 (≈ 0.108 µM) | 0.125 (≈ 0.108 µM) | 4 (≈ 3.45 µM) | 16 (≈ 13.8 µM) | 0.125 (≈ 0.108 µM) | 64 (≈ 55.2 µM) | 4 (≈ 3.45 µM) | 0.25 (≈ 0.215 µM) | 8 (≈ 6.89 µM) | 16 (≈ 13.8 µM) | 0.25 (≈ 0.215 µM) | 0.25 (≈ 0.215 µM) | 0.125 (≈ 0.108 µM) | 0.25 (≈ 0.215 µM) | Cc1ccc(CO[C@@H](CCN)C(=O)N[C@H](C(=O)N[C@@H](CN)C(=O)N[C@H]2CCNC(=O)[C@H]([C@@H](C)O)NC(=O)[C@H](CCN)NC(=O)[C@H](CCN)NC(=O)[C@H](CC(C)C)NC(=O)[C@@H](CC3CCCCC3)NC(=O)[C@H](CCN)NC2=O)[C@@H](C)O)cc1 [Example 71, (S)-4-amino-2-((4-methylbenzyl)oxy) butanoyl L-Thr-L-Dap-polymyxin [D-cyclohexylalanine]-6 heptapeptide.] (X9-T[Dap][Dab][Dab][dCha]L[Dab][Dab]T; lactam 3-C)
3 |  |  | 0.5 (≈ 0.434 µM) | 0.5 (≈ 0.434 µM) | 8 (≈ 6.95 µM) |  | 0.125 (≈ 0.109 µM) |  |  | 0.25 (≈ 0.217 µM) |  |  | 0.5 (≈ 0.434 µM) | 0.5 (≈ 0.434 µM) |  |  | CC(C)C[C@@H]1NC(=O)[C@@H](CC2CCCCC2)NC(=O)[C@H](CCN)NC(=O)[C@@H](NC(=O)[C@H](CN)NC(=O)[C@@H](NC(=O)C(CCN)c2ccccc2Cl)[C@@H](C)O)CCNC(=O)[C@H]([C@@H](C)O)NC(=O)[C@H](CCN)NC(=O)[C@H](CCN)NC1=O (stereo partly drawn) [Example 76, 4-amino-2-(2-chlorophenyl) butanoyl L-Thr-L-Dap-polymyxin [D-cyclohexylalanine]-6 heptapeptide.] (X28-T[Dap][Dab][Dab][dCha]L[Dab][Dab]T; lactam 3-C)
4 |  |  | 0.25 (≈ 0.217 µM) | 0.25 (≈ 0.217 µM) | 2 (≈ 1.74 µM) |  | 0.5 (≈ 0.434 µM) |  | 2 (≈ 1.74 µM) | 0.5 (≈ 0.434 µM) |  |  | 0.5 (≈ 0.434 µM) | 0.5 (≈ 0.434 µM) |  |  | CC(C)C[C@@H]1NC(=O)[C@@H](CC2CCCCC2)NC(=O)[C@H](CCN)NC(=O)[C@@H](NC(=O)[C@H](CN)NC(=O)[C@@H](NC(=O)C(CCN)c2cccc(Cl)c2)[C@@H](C)O)CCNC(=O)[C@H]([C@@H](C)O)NC(=O)[C@H](CCN)NC(=O)[C@H](CCN)NC1=O (stereo partly drawn) [Example 79, 4-Amino-2-(3-chlorophenyl) butanoyl L-Thr-L-Dap-polymyxin [D-cyclohexylalanine]-6 heptapeptide.] (X27-T[Dap][Dab][Dab][dCha]L[Dab][Dab]T; lactam 3-C)

Further lines, the molecule ahead of its results:

Row | SMILES | MIC A. baumanii 053 (Acinetobacter baumannii) [µg/mL] | MIC A. baumanii 056 (Acinetobacter baumannii) [µg/mL] | MIC A. baumanii ATCC BAA-747 (Acinetobacter baumannii) [µg/mL] | MIC A. baumanii NCTC 13424 (Acinetobacter baumannii) [µg/mL] | MIC E. coli 058 (Escherichia coli) [µg/mL] | MIC E. coli 061 (Escherichia coli) [µg/mL] | MIC E. coli ATCC 25922 (Escherichia coli) [µg/mL] | MIC K. pneumoniae 063 (Klebsiella pneumoniae) [µg/mL] | MIC K. pneumoniae 065 (Klebsiella pneumoniae) [µg/mL] | MIC K. pneumoniae ATCC 13882 (Klebsiella pneumoniae) [µg/mL] | MIC P. aeruginosa 068 (Pseudomonas aeruginosa) [µg/mL] | MIC P. aeruginosa 070 (Pseudomonas aeruginosa) [µg/mL] | MIC P. aeruginosa ATCC 27853 (Pseudomonas aeruginosa) [µg/mL] | MIC P. aeruginosa CCUG 59347 (Pseudomonas aeruginosa) [µg/mL] | MIC E. coli NCTC 9001 (Escherichia coli) [µg/mL] | MIC K. pneumoniae ATCC 4352 (Klebsiella pneumoniae) [µg/mL]
5 | CC(C)CC1CNCC(C(=O)N[C@H](C(=O)N[C@@H](CCN)C(=O)N[C@H]2CCNC(=O)[C@H]([C@@H](C)O)NC(=O)[C@H](CCN)NC(=O)[C@H](CCN)NC(=O)[C@H](CC(C)C)NC(=O)[C@@H](CC3CCCCC3)NC(=O)[C@H](CCN)NC2=O)[C@@H](C)O)C1 (stereo partly drawn) [Example 73] (X4-T[Dab][Dab][Dab][dCha]L[Dab][Dab]T; lactam 3-C) | 64 (≈ 56.3 µM) | 16 (≈ 14.1 µM) | 0.25 (≈ 0.22 µM) | 0.125 (≈ 0.11 µM) | 1 (≈ 0.88 µM) | 2 (≈ 1.76 µM) | 0.125 (≈ 0.11 µM) | 8 (≈ 7.04 µM) | 2 (≈ 1.76 µM) | 0.25 (≈ 0.22 µM) | 1 (≈ 0.88 µM) | 1 (≈ 0.88 µM) | 0.5 (≈ 0.44 µM) | 0.5 (≈ 0.44 µM) | 0.125 (≈ 0.11 µM) | 
6 | CC(C)C[C@@H]1NC(=O)[C@@H](CC2CCCCC2)NC(=O)[C@H](CCN)NC(=O)[C@@H](NC(=O)[C@H](CN)NC(=O)[C@@H](NC(=O)C(CCN)CC2CCCC2)[C@@H](C)O)CCNC(=O)[C@H]([C@@H](C)O)NC(=O)[C@H](CCN)NC(=O)[C@H](CCN)NC1=O (stereo partly drawn) [Example 75, 4-amino-2-(cyclopentylmethyl) butanoyl L-Thr-L-Dap-polymyxin [D-cyclohexylalanine]-6 heptapeptide.] (X15-T[Dap][Dab][Dab][dCha]L[Dab][Dab]T; lactam 3-C) | >64 | 64 (≈ 57 µM) | 0.125 (≈ 0.111 µM) | 0.125 (≈ 0.111 µM) | 2 (≈ 1.78 µM) | 16 (≈ 14.3 µM) | 0.125 (≈ 0.111 µM) | 16 (≈ 14.3 µM) | 1 (≈ 0.891 µM) | 0.125 (≈ 0.111 µM) | 2 (≈ 1.78 µM) | 2 (≈ 1.78 µM) | 0.25 (≈ 0.223 µM) | 0.25 (≈ 0.223 µM) |  | 
7 | CC(C)C[C@@H]1NC(=O)[C@@H](CC2CCCCC2)NC(=O)[C@H](CCN)NC(=O)[C@@H](NC(=O)[C@H](CCN)NC(=O)[C@@H](NC(=O)C(CCN)c2ccccc2Cl)[C@@H](C)O)CCNC(=O)[C@H]([C@@H](C)O)NC(=O)[C@H](CCN)NC(=O)[C@H](CCN)NC1=O (stereo partly drawn) [Example 77, 4-amino-2-(2-chlorophenyl) butanoyl polymyxin [D-cyclohexylalanine]-6 nonapeptide] (X28-T[Dab][Dab][Dab][dCha]L[Dab][Dab]T; lactam 3-C) |  |  | 1 (≈ 0.858 µM) | 0.5 (≈ 0.429 µM) | 8 (≈ 6.87 µM) |  | 0.25 (≈ 0.215 µM) |  | 8 (≈ 6.87 µM) | 0.5 (≈ 0.429 µM) |  |  | 0.5 (≈ 0.429 µM) | 0.5 (≈ 0.429 µM) |  | 
8 | Cc1ccc(CO[C@@H](CN)C(=O)N[C@H](C(=O)N[C@@H](CN)C(=O)N[C@H]2CCNC(=O)[C@H]([C@@H](C)O)NC(=O)[C@H](CCN)NC(=O)[C@H](CCN)NC(=O)[C@H](CC(C)C)NC(=O)[C@@H](CC3CCCCC3)NC(=O)[C@H](CCN)NC2=O)[C@@H](C)O)cc1 [Example 78, (S)-3-amino-2-((4-methylbenzyl)oxy) propanoyl L-Thr-L-Dap-polymyxin [D-cyclohexylalanine]-6 heptapeptide] (X29-T[Dap][Dab][Dab][dCha]L[Dab][Dab]T; lactam 3-C) |  |  | 0.25 (≈ 0.218 µM) | 0.06 (≈ 0.0523 µM) | 4 (≈ 3.49 µM) |  | 0.25 (≈ 0.218 µM) |  |  | 0.25 (≈ 0.218 µM) |  |  | 0.25 (≈ 0.218 µM) | 0.25 (≈ 0.218 µM) |  | 
9 | CC(C)C[C@@H]1NC(=O)[C@@H](CC2CCCCC2)NC(=O)[C@H](CCN)NC(=O)[C@@H](NC(=O)[C@H](CN)NC(=O)[C@@H](NC(=O)[C@H](CN)OCc2ccc(Cl)cc2)[C@@H](C)O)CCNC(=O)[C@H]([C@@H](C)O)NC(=O)[C@H](CCN)NC(=O)[C@H](CCN)NC1=O [Example 81, (S)-3-amino-2-((4-chlorobenzyl)oxy) propanoyl L-Thr-L-Dap-polymyxin [D-cyclohexylalanine-6]heptapeptide] (X10-T[Dap][Dab][Dab][dCha]L[Dab][Dab]T; lactam 3-C) | 32 (≈ 27.4 µM) | 8 (≈ 6.86 µM) | 0.125 (≈ 0.107 µM) | 0.125 (≈ 0.107 µM) | 1 (≈ 0.857 µM) | 16 (≈ 13.7 µM) | 0.125 (≈ 0.107 µM) | 16 (≈ 13.7 µM) | 4 (≈ 3.43 µM) | 0.125 (≈ 0.107 µM) | 2 (≈ 1.71 µM) | 2 (≈ 1.71 µM) | 0.125 (≈ 0.107 µM) | 0.25 (≈ 0.214 µM) | 0.03 (≈ 0.0257 µM) | 0.25 (≈ 0.214 µM)
10 | CC(C)C[C@@H]1NC(=O)[C@@H](CC2CCCCC2)NC(=O)[C@H](CCN)NC(=O)[C@@H](NC(=O)[C@H](CCN)NC(=O)[C@@H](NC(=O)C(CCN)CC2CCCC2)[C@@H](C)O)CCNC(=O)[C@H]([C@@H](C)O)NC(=O)[C@H](CCN)NC(=O)[C@H](CCN)NC1=O (stereo partly drawn) [Example 83, 4-amino-2-(cyclopentylmethyl) butanoyl polymyxin [D-cyclohexylalanine-6]nonapeptide] (X15-T[Dab][Dab][Dab][dCha]L[Dab][Dab]T; lactam 3-C) | >64 | 64 (≈ 56.3 µM) | 0.125 (≈ 0.11 µM) | 0.06 (≈ 0.0528 µM) | 4 (≈ 3.52 µM) | 16 (≈ 14.1 µM) | 0.5 (≈ 0.44 µM) | 16 (≈ 14.1 µM) | 1 (≈ 0.88 µM) | 0.25 (≈ 0.22 µM) | 2 (≈ 1.76 µM) | 8 (≈ 7.04 µM) | 0.25 (≈ 0.22 µM) | 0.25 (≈ 0.22 µM) | 0.06 (≈ 0.0528 µM) | 
